Test results: the supplement of paper PMC10307832

Key:
Assay in all cases: relative viability (nuclei count vs DMSO), 5 days (fraction); higher = more cells survive
[1] = compound: C#Cc1cccc(Nc2ncnc3cc(OCCOC)c(OCCOC)cc23)c1 [Erlotinib] + CC1(C)CCC(c2ccc(Cl)cc2)=C(CN2CCN(c3ccc(C(=O)NS(=O)(=O)c4ccc(N[C@H](CCN5CCOCC5)CSc5ccccc5)c(S(=O)(=O)C(F)(F)F)c4)cc3)CC2)C1 [Navitoclax] (partner 0.5 µM)
Outline: (§1)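 Each reported value is a median over duplicate plates. It expresses relative viability: treated-well nuclei count divided by vehicle-well nuclei count. Lung cancer cell lines in 1536-well plates were dosed by pin tool a day after seeding, alone with one drug or with a fixed anchor-drug dose plus five library-drug doses (not always all listed) in √10 steps, and nuclei were counted after 5 days.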

[2] = compound: C#Cc1cccc(Nc2ncnc3cc(OCCOC)c(OCCOC)cc23)c1 [Erlotinib] + CS(=O)(=O)N1CCN(Cc2cc3nc(-c4cccc5[nH]ncc45)nc(N4CCOCC4)c3s2)CC1 [Pictilisib] (partner 1 µM)
Outline: as §1

[3] = compound: O=C(Nc1c[nH]nc1-c1nc2ccc(CN3CCOCC3)cc2[nH]1)NC1CC1 [AT9283] + O=C(CCCCCCC(=O)Nc1ccccc1)NO [Vorinostat] (partner 1 µM)
Outline: as §1

[4] = compound: C#Cc1cccc(Nc2ncnc3cc(OCCOC)c(OCCOC)cc23)c1 [Erlotinib] + CS(=O)(=O)CCNCc1ccc(-c2ccc3ncnc(Nc4ccc(OCc5cccc(F)c5)c(Cl)c4)c3c2)o1 [Lapatinib] (partner 2 µM)
Outline: as §1

[5] = compound: O=C(Nc1c[nH]nc1-c1nc2ccc(CN3CCOCC3)cc2[nH]1)NC1CC1 [AT9283] + COc1cccc2cc(-c3nc([C@H]4CC[C@H](C(=O)O)CC4)n4ncnc(N)c34)[nH]c12 [OSI-027] (partner 0.5 µM)
Outline: as §1

NCI-H23 showed a relative viability ([1]; first compound 0.02 µM) of 0.894, a relative viability ([1]; first compound 0.2 µM) of 0.88 and a relative viability ([1]; first compound 0.6325 µM) of 1.16. The relative viability ([1]; first compound 2 µM) was 0.596, the relative viability ([2]; first compound 0.02 µM) was 0.56 and the relative viability ([2]; first compound 0.2 µM) was 0.517. The relative viability ([2]; first compound 0.6325 µM) was 0.61, the relative viability ([2]; first compound 2 µM) was 0.464 and the relative viability ([3]; first compound 0.003 µM) was 0.523. The relative viability ([3]; first compound 0.03 µM) was 0.363, the relative viability ([3]; first compound 0.09487 µM) was 0.183 and the relative viability ([3]; first compound 0.3 µM) was 0.177. For the same cell line, the relative viability ([4]; first compound 0.02 µM) was 1.29, the relative viability ([4]; first compound 0.2 µM) was 0.993 and the relative viability ([4]; first compound 0.6325 µM) was 1.27. For the same cell line, the relative viability ([4]; first compound 2 µM) was 0.977, the relative viability ([5]; first compound 0.003 µM) was 0.666 and the relative viability ([5]; first compound 0.03 µM) was 0.674. The relative viability ([5]; first compound 0.09487 µM) was 0.344 and the relative viability ([5]; first compound 0.3 µM) was 0.281.
For NCI-H358, the relative viability ([2]; first compound 0.02 µM) was 0.319, the relative viability ([2]; first compound 0.2 µM) was 0.313 and the relative viability ([2]; first compound 0.6325 µM) was 0.303. For the same cell line, the relative viability ([2]; first compound 2 µM) was 0.28, the relative viability ([3]; first compound 0.003 µM) was 0.54 and the relative viability ([3]; first compound 0.03 µM) was 0.119. For the same cell line, the relative viability ([3]; first compound 0.09487 µM) was 0.0833, the relative viability ([3]; first compound 0.3 µM) was 0.0819 and the relative viability ([4]; first compound 0.02 µM) was 0.379. The relative viability ([4]; first compound 0.2 µM) was 0.421, the relative viability ([4]; first compound 0.6325 µM) was 0.519 and the relative viability ([4]; first compound 2 µM) was 0.452. For the same cell line, the relative viability ([5]; first compound 0.003 µM) was 0.899, the relative viability ([5]; first compound 0.03 µM) was 0.186 and the relative viability ([5]; first compound 0.09487 µM) was 0.0868. The relative viability ([5]; first compound 0.3 µM) was 0.0708.
For SW 900, the relative viability ([3]; first compound 0.003 µM) was 0.424, the relative viability ([3]; first compound 0.03 µM) was 0.358 and the relative viability ([3]; first compound 0.09487 µM) was 0.298. The relative viability ([3]; first compound 0.3 µM) was 0.199, the relative viability ([5]; first compound 0.003 µM) was 0.718 and the relative viability ([5]; first compound 0.03 µM) was 0.703. The relative viability ([5]; first compound 0.09487 µM) was 0.388 and the relative viability ([5]; first compound 0.3 µM) was 0.229.
ABC-1 showed a relative viability ([2]; first compound 0.02 µM) of 0.656, a relative viability ([2]; first compound 0.2 µM) of 0.71 and a relative viability ([2]; first compound 0.6325 µM) of 0.847. The relative viability ([2]; first compound 2 µM) was 0.589, the relative viability ([3]; first compound 0.003 µM) was 1.05 and the relative viability ([3]; first compound 0.03 µM) was 0.373. For the same cell line, the relative viability ([3]; first compound 0.09487 µM) was 0.359, the relative viability ([3]; first compound 0.3 µM) was 0.258 and the relative viability ([4]; first compound 0.02 µM) was 1.26. It also gave a relative viability ([4]; first compound 0.2 µM) of 1.25, a relative viability ([4]; first compound 0.6325 µM) of 1.3 and a relative viability ([4]; first compound 2 µM) of 0.971. The relative viability ([5]; first compound 0.003 µM) was 0.436, the relative viability ([5]; first compound 0.03 µM) was 0.245 and the relative viability ([5]; first compound 0.09487 µM) was 0.213. The relative viability ([5]; first compound 0.3 µM) was 0.201.
A549 was tested, and the relative viability ([1]; first compound 0.02 µM) was 1.1, the relative viability ([1]; first compound 0.2 µM) was 1.26 and the relative viability ([1]; first compound 0.6325 µM) was 1.33. The relative viability ([1]; first compound 2 µM) was 1.06, the relative viability ([2]; first compound 0.02 µM) was 0.471 and the relative viability ([2]; first compound 0.2 µM) was 0.529. The relative viability ([2]; first compound 0.6325 µM) was 0.582, the relative viability ([2]; first compound 2 µM) was 0.406 and the relative viability ([4]; first compound 0.02 µM) was 0.957. The relative viability ([4]; first compound 0.2 µM) was 0.979, the relative viability ([4]; first compound 0.6325 µM) was 1.06 and the relative viability ([4]; first compound 2 µM) was 0.94.
In the case of Calu-6, the relative viability ([1]; first compound 0.02 µM) is reported as 0.919, the relative viability ([1]; first compound 0.2 µM) is reported as 0.803 and the relative viability ([1]; first compound 0.6325 µM) is reported as 0.781. The relative viability ([1]; first compound 2 µM) was 0.759, the relative viability ([2]; first compound 0.02 µM) was 0.94 and the relative viability ([2]; first compound 0.2 µM) was 0.856. The relative viability ([2]; first compound 0.6325 µM) was 0.913, the relative viability ([2]; first compound 2 µM) was 0.817 and the relative viability ([4]; first compound 0.02 µM) was 1.12. The relative viability ([4]; first compound 0.6325 µM) was 1.1 and the relative viability ([4]; first compound 2 µM) was 0.979.
Cell Line EBC-1 has a relative viability ([1]; first compound 0.02 µM) of 0.404, a relative viability ([1]; first compound 0.2 µM) of 0.466 and a relative viability ([1]; first compound 0.6325 µM) of 0.363. For the same cell line, the relative viability ([1]; first compound 2 µM) was 0.34, the relative viability ([2]; first compound 0.02 µM) was 0.382 and the relative viability ([2]; first compound 0.2 µM) was 0.322. For the same cell line, the relative viability ([2]; first compound 0.6325 µM) was 0.309, the relative viability ([2]; first compound 2 µM) was 0.259 and the relative viability ([4]; first compound 0.02 µM) was 0.23. The relative viability ([4]; first compound 0.2 µM) was 0.19, the relative viability ([4]; first compound 0.6325 µM) was 0.221 and the relative viability ([4]; first compound 2 µM) was 0.22.
In the case of NCI-H1623, the relative viability ([5]; first compound 0.003 µM) is reported as 0.438, the relative viability ([5]; first compound 0.03 µM) is reported as 0.448 and the relative viability ([5]; first compound 0.09487 µM) is reported as 0.358. It also gave a relative viability ([5]; first compound 0.3 µM) of 0.381.
Work on LCLC-103H yielded a relative viability ([2]; first compound 0.02 µM) of 0.614, a relative viability ([2]; first compound 0.2 µM) of 0.587 and a relative viability ([2]; first compound 0.6325 µM) of 0.753. For the same cell line, the relative viability ([2]; first compound 2 µM) was 0.538, the relative viability ([3]; first compound 0.003 µM) was 0.745 and the relative viability ([3]; first compound 0.03 µM) was 0.566. The relative viability ([3]; first compound 0.09487 µM) was 0.355, the relative viability ([3]; first compound 0.3 µM) was 0.306 and the relative viability ([5]; first compound 0.003 µM) was 0.396. For the same cell line, the relative viability ([5]; first compound 0.03 µM) was 0.451, the relative viability ([5]; first compound 0.09487 µM) was 0.415 and the relative viability ([5]; first compound 0.3 µM) was 0.276.
NCI-H661 was tested, and the relative viability ([2]; first compound 0.02 µM) was 0.333, the relative viability ([2]; first compound 0.6325 µM) was 0.416 and the relative viability ([2]; first compound 2 µM) was 0.294. It also gave a relative viability ([3]; first compound 0.003 µM) of 0.858, a relative viability ([3]; first compound 0.03 µM) of 0.359 and a relative viability ([3]; first compound 0.09487 µM) of 0.316. It also gave a relative viability ([3]; first compound 0.3 µM) of 0.384, a relative viability ([4]; first compound 0.02 µM) of 0.493 and a relative viability ([4]; first compound 0.2 µM) of 0.41. For the same cell line, the relative viability ([4]; first compound 2 µM) was 0.473, the relative viability ([5]; first compound 0.003 µM) was 0.767 and the relative viability ([5]; first compound 0.03 µM) was 0.529. It also gave a relative viability ([5]; first compound 0.09487 µM) of 0.313 and a relative viability ([5]; first compound 0.3 µM) of 0.344.
NCI-H1299 gave a relative viability ([1]; first compound 0.02 µM) of 1.11, a relative viability ([1]; first compound 0.2 µM) of 1.08 and a relative viability ([1]; first compound 0.6325 µM) of 1.06. It also gave a relative viability ([1]; first compound 2 µM) of 0.981, a relative viability ([2]; first compound 0.02 µM) of 0.894 and a relative viability ([2]; first compound 0.2 µM) of 0.839. For the same cell line, the relative viability ([2]; first compound 0.6325 µM) was 0.918, the relative viability ([2]; first compound 2 µM) was 0.55 and the relative viability ([4]; first compound 0.02 µM) was 0.994. The relative viability ([4]; first compound 0.2 µM) was 0.995 and the relative viability ([4]; first compound 0.6325 µM) was 0.904.
NCI-H2342 gave a relative viability ([3]; first compound 0.003 µM) of 0.804, a relative viability ([3]; first compound 0.03 µM) of 0.576 and a relative viability ([3]; first compound 0.09487 µM) of 0.59. For the same cell line, the relative viability ([3]; first compound 0.3 µM) was 0.409, the relative viability ([5]; first compound 0.003 µM) was 0.605 and the relative viability ([5]; first compound 0.03 µM) was 0.576. It also gave a relative viability ([5]; first compound 0.09487 µM) of 0.508 and a relative viability ([5]; first compound 0.3 µM) of 0.413.
